From ChEMBL document CHEMBL1201862, “PubChem BioAssay data set” (2004)
Active and inactive are the calls of the source.

Key:
[1] = biological target: Beta-2 adrenergic receptor (Homo sapiens, UniProt P07550); test: ADRB2 activation measured by internalization – cell-based, FAP fluorogen, flow cytometry, cherry pick 1, dose response (AID 588763); type: functional
[2] = viability loss in THP-1 monocytes – THP-1 cells, cytotoxicity control for Vif-APOBEC3G degradation inhibitor project, dose response (AID 1117359); type: functional; details: THP-1
Protein skinhead-1 = biological target: T1, Protein skinhead-1 (Caenorhabditis elegans, UniProt P34707); type: functional
T1 sequence (P34707 whole entry): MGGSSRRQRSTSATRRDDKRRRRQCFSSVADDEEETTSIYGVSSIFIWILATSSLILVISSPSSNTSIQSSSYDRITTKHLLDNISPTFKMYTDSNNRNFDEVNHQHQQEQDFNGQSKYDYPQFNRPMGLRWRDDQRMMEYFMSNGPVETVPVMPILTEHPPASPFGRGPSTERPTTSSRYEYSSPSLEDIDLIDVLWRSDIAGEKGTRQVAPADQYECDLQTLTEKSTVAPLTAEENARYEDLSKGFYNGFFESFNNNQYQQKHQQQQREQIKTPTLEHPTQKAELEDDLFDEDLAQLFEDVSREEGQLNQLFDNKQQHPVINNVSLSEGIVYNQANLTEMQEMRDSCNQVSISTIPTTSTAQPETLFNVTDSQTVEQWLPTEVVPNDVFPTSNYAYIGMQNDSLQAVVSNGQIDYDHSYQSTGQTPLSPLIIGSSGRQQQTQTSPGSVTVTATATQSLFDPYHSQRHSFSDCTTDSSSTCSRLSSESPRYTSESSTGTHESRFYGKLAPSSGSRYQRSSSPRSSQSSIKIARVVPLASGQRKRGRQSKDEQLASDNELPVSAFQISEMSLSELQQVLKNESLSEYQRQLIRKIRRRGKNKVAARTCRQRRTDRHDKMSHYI

[3] = NIH3T3 cell viability loss – ATP luminescence, mouse fibroblasts, counter-screen, dose response (AID 2010); type: functional, cell-based;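 further: cells exposed to compound for about 90 hours before reading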
[4] = Trypanosoma cruzi growth suppression in host cells – NIH3T3 host cells, beta-gal luminescence, confirmation (AID 2044); type: functional, cell-based;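 further: intracellular parasites grown in NIH/3T3 mouse fibroblasts as host cells; luminescent beta-galactosidase reporter signal from transgenic T. cruzi replicating inside host cells; inhibitors lower the luminescence signal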
[5] = Luminescence Cell-Based Dose Retest to Confirm Inhibitors of Cancer Stem Cells. [Related pubchem assays (depositor defined):AID2717, AID2721]; type: functional; details: Homo sapiens
[6] = biological target: T2, Heat shock factor protein 1 (Mus musculus, UniProt P38532); test: enhancement of HSF1-driven luciferase signal – cell-based, NIH3T3, luminescence, dose retest, confirmation (AID 435004); type: functional;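 further: stress induced by proteasome inhibitor MG132 added 30 min after compound; luciferase reporter driven by HSF1 response element in NIH3T3 cells; actives raise luminescence as potentiators of the MG132 stress response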
T2 sequence (P38532 whole entry): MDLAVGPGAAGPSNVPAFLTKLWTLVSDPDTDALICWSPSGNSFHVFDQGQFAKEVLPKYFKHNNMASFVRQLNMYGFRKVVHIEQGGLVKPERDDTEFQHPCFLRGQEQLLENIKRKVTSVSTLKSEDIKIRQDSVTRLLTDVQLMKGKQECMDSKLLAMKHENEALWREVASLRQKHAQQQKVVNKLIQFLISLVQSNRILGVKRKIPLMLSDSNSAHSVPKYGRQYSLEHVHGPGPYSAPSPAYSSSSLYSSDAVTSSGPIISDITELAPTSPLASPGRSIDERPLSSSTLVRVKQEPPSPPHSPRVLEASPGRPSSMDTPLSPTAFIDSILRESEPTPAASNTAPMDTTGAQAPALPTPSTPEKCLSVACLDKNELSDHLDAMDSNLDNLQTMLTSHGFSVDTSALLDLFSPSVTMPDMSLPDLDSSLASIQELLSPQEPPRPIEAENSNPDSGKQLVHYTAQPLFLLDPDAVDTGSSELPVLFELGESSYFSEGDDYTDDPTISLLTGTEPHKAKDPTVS

[7] = biological target: Induced myeloid leukemia cell differentiation protein Mcl-1 (Homo sapiens, UniProt Q07820); type: functional
Vero = test: cells; type: functional; details: Chlorocebus sabaeus
[8] = HEK-293T viability loss after treatment – luminescence, T-cell screen hits, cytotoxicity control for TCR NF-kB inhibitor project, dose response (AID 489026); type: functional, cell-based;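 further: cells exposed to compound about 14 hours before the viability readout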
[9] = biological target: T3, Corticotropin-releasing factor receptor 2/Corticotropin-releasing factor-binding protein (Homo sapiens, UniProt P24387+Q13324); test: activators of CRF receptor 2 with binding protein – uHTS hits, confirmation (AID 602473); type: functional; details: read-out: EC50_Mean
T3 sequence (Q13324 whole entry): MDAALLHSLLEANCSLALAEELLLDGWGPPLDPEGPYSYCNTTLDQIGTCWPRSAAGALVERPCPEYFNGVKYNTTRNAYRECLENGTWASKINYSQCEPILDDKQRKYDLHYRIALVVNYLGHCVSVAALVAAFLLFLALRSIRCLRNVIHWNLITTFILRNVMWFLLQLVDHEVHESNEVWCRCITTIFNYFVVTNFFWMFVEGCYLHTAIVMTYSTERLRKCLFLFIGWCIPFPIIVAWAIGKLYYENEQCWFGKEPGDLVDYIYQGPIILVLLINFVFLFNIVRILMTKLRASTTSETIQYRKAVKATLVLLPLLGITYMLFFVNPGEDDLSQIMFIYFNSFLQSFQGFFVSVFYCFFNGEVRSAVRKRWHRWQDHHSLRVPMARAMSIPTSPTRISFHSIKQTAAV
T3 sequence (P24387 whole entry): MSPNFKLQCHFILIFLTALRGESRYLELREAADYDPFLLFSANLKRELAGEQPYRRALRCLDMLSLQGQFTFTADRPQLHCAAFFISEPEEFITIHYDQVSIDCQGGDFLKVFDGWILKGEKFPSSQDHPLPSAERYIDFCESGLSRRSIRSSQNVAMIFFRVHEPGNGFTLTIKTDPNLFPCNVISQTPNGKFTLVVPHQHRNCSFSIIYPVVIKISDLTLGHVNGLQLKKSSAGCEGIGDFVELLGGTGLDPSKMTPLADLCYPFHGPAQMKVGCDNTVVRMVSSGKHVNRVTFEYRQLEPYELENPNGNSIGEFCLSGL

[10] = biological target: T3, Corticotropin-releasing factor receptor 2/Corticotropin-releasing factor-binding protein; test: Dose Response confirmation of uHTS hits for small molecule antagonists of the CRF-binding protein and CRF-R2 receptor complex.; type: functional; details: read-out: IC50_Mean
BJ [11] = test: BJ-TERT fibroblast viability loss – cell-based, RAS-independent, luminescence, dose response (AID 1933); type: functional; details: Homo sapiens
BJ [12] = test: cells; type: functional, cell-based; details: Homo sapiens
INS1 = test: INS-1E survival protection against cytokine death – cell-based, luminescence, retest, dose response (AID 449756); type: functional; details: Rattus norvegicus;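 further: cell death triggered by IL-1 beta plus TNF-alpha plus IFN-gamma mixture; protective hits raise ATP signal compared with cytokine alone wells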
BJ [13] = test: BJ-TERT-LT-ST fibroblast viability loss – cell-based, RAS-independent, luminescence, dose response (AID 1935); type: functional; details: Homo sapiens;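 further: BJ fibroblasts immortalized with TERT plus LT and ST oncogenes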
[14] = luciferase reporter signal suppression in cells – H4 neuroglioma cells, luminescence, dose response (AID 1990); type: functional, cell-based
[15] = DRD fibroblast viability loss – cell-based, non-viral oncogenic, luminescence, dose response (AID 1934); type: functional; details: Homo sapiens
[16] = Luminescence Cell-Based Dose Response HTS to Identify Inhibitors of 5'UTR Stem-Loop Driven Prion Protein mRNA Translation in H4 Neuroglioblastoma Cells. [Related pubchem assays: 1827 (Project Summary), 1813 (Primary HTS)]; type: functional
[17] = alpha-synuclein stem-loop luciferase translation blockers – H4 neuroglioma cells, luminescence, confirmation (AID 1988); type: functional, cell-based

Beta-2 adrenergic receptor, sequence (P07550 whole entry): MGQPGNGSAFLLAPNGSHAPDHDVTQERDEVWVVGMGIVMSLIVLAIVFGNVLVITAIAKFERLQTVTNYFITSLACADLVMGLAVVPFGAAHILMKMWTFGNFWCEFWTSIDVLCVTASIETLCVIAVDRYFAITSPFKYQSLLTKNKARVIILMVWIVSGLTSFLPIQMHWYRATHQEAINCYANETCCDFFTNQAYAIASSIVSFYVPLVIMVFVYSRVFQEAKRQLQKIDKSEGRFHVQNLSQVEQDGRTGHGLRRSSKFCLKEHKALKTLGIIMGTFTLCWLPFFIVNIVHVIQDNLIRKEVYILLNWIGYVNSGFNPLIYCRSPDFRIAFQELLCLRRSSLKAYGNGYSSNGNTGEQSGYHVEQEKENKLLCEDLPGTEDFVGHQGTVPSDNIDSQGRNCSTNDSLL
Induced myeloid leukemia cell differentiation protein Mcl-1, sequence (Q07820 whole entry): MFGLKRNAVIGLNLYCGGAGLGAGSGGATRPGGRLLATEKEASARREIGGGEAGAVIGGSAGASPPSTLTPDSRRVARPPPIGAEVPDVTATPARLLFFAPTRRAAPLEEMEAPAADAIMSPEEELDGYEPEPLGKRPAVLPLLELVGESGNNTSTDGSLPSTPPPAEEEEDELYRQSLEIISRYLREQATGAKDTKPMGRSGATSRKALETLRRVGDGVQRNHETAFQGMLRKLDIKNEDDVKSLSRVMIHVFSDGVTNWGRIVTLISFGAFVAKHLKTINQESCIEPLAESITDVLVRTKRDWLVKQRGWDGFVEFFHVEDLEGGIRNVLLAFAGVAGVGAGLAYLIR

In the case of COc1ccc([C@H]2/C=C\CN(Cc3ccc(N(C)C)cc3)[C@@H](C)C(=O)N2Cc2ccc(F)cc2)cc1, the EC50 [1] is reported as 4.36 µM (active).

In the case of CCc1ccc(N(C2C=CS(=O)(=O)C2)S(=O)(=O)c2ccc(C)cc2)cc1 (stereo unspecified), the CC50 [2] is reported as > 40 µM (active).

With CCC1CSC(Nc2ccc(C(=O)/C=C/c3cccc(C)c3)cc2)=N1 (stereo unspecified) the IC50 (Protein skinhead-1) was > 100 µM (inactive), the EC50 [3] was > 60 µM (not active) and the EC50 [4] was 3.06 µM (active). For the same compound, the AC50 [5] was 5.77 µM (active), the EC50 [6] was 12.9 µM (active) and the IC50 [7] was 1.66 µM (active). For the same compound, the CC50 (Vero) was > 25 µM (active).

With COc1ccc(CC(=O)N2CCCC(C)C2)cc1 (stereo unspecified) the IC50 (Protein skinhead-1) was > 100 µM (inactive).

With O=C(C1CCN(S(=O)(=O)c2c(Cl)cccc2Cl)CC1)N1CCCC1 the IC50 (Protein skinhead-1) was > 100 µM (inactive).

In the case of CCN(CC)P(=S)(c1c(C)nc2ccccn12)c1c(C)nc2ccccn12, the CC50 [2] is reported as 13.9 µM (active).

In the case of COc1ccc(N(C(=O)CNC(=O)c2ccco2)C(C(=O)NC2CCCCC2)c2cccnc2)cc1 (stereo unspecified), the IC50 (Protein skinhead-1) is reported as > 100 µM (inactive).

With COc1ccc(C(=O)c2ccc(N(C)C)cc2)c(OC)c1 the IC50 [8] was > 80 µM (inactive).

With COc1ccc(Cc2nc(-c3ccc(Cl)cc3)no2)cc1 the IC50 (Protein skinhead-1) was > 100 µM (inactive), the EC50 [9] was > 53 µM (inactive) and the IC50 [10] was > 47.1 µM (inactive).

With COc1ccc(/C=C/C(=O)c2ccc([N+](=O)[O-])o2)cc1OC the EC50 (BJ [11]) was > 150 µM (not active), the EC50 (BJ [12]) was > 150 µM (inconclusive) and the AC50 (INS1) was 3.94 µM (active). For the same compound, the AC50 [5] was 2.09 µM (active), the EC50 (BJ [13]) was 1.15 µM (inconclusive) and the EC50 [14] was 9.14 µM (active). The EC50 [15] was 2.58 µM (inconclusive), the EC50 [16] was 10.5 µM (active) and the EC50 [17] was > 120 µM (not active).
